Values after ≈ are worked out from the molar mass of the structure shown. Like-named read-outs stand apart in the source and are kept apart here.
Experiments:
[1] = tested on: RVFV strain MP12; assay: microbe, parasite or virus in culture; type: cell-based, Rift Valley Fever Virus; conditions: for EC50: Rift Valley fever virus, Vero, read-out: Estimated EC50
[2] = target: T1, human ribonuclease H1 (Homo sapiens, UniProt O60930); assay: biochemical; type: biochemical
T1 construct: made in house; host or cells: E. coli
T1 sequence (O60930 1-286): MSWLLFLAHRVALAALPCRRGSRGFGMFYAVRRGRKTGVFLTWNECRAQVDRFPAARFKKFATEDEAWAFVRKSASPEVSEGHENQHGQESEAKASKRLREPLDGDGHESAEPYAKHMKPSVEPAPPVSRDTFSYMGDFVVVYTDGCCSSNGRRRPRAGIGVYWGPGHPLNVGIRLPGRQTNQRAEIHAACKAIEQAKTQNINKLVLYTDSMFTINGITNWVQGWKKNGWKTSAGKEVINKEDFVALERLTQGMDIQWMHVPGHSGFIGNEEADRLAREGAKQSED

[3] = Quantitative cytotoxicity in Vero cells, crystal violet staining of EC50 plates; conditions: African green monkey
[4] = tested on: RVFV; assay: microbe, parasite or virus in culture; type: cell-based, Rift Valley Fever Virus; conditions: Rift Valley fever virus, A549, 24 h
[5] = tested on: C. neoformans; assay: Inhibition of C. neoformans growth, limiting dilution assay; type: cell-based, Cryptococcus neoformans; conditions: Cryptococcus neoformans
[6] = in vitro; conditions: human
[7] = tested on: RVFV; assay: microbe, parasite or virus in culture; type: cell-based, Rift Valley Fever Virus
[8] = in vitro; conditions: African green monkey
[9] = Cytotoxicity in HepDES19 cells, MTS assay; conditions: human
[10] = tested on: Escherichia coli; assay: Inhibition of Escherichia coli growth, broth microdilution; type: cell-based; conditions: Escherichia coli; 16-24 hours, Mueller-Hinton broth; — = inactive; read-out: E. coli (MIC80)
[11] = tested on: Staphylococcus spp.; assay: Inhibition of Staphylococcus spp. growth, broth microdilution; type: cell-based, S. saprophyticus or S. aureus; conditions: Staphylococcus; 16-24 hours, Mueller-Hinton broth; — = no measurable MIC80
[12] = 48 h, read-out: C. neoformans (MIC80, μM)
[13] = Rift Valley fever virus, Vero, 24 h, read-out: RVFV (EC50, μM)
[14] = 48 hours at 35° C., YNB-02, read-out: C. neoformans (MIC80)
[15] = HepDES19 cells (HepG2-derived hepatoblastoma cell line)

Structure (SMILES)	EC50 [1] [µM]	IC50 [2] [µM]	CC50 at 1 day [3] [µM]	EC50 [7, 13] [µM]	CC50 [8] [µM]	MIC80 [5, 14] [µM]	CC50 at 3 days [9, 15] [µM]	further results
CCOC(=O)c1sc(NC(=O)CSc2nnc(Cc3ccccc3)o2)c(C#N)c1C [Compound 6, reference compound]	≥ 120							
COC(=O)c1c(C)cc(O)c(=O)c(O)c1Br [Compound 335]	3	111	> 120	40.8				EC50 [4]: ≥ 120 µM; MIC80 [5, 12]: 50 µM (≈ 14.5 µg/mL); CC50 [6]: 96.2 µM
Cc1cc(O)c(=O)c(O)cc1C(=O)NCc1ccc(N2CCCC2)cc1 [Compound 1019]	19				≥ 120			
Cc1ccc(Sc2cccc(O)c(=O)c2O)cc1 [Compound 838]	8	100	> 300	12.7	86	1 (≈ 0.26 µg/mL)	18.6	
CC(C)c1cccc(=O)c(O)c1 [Compound 47, β-thujaplicin, reference compound]	≥ 120							activity against RVFV in the primary screen, in words [1]: inactive
O=c1c(O)c(-c2ccc(O)c(O)c2)oc2cc(O)c(O)c(O)c12 [Compound 7, Quercetagetin, reference compound]	≥ 120							
Cc1cc(O)c(=O)c(O)cc1C(=O)c1ccc(Br)cc1 [Compound 358]		43	> 250	9		11 (≈ 3.69 µg/mL)	12.5	MIC80 [10]: 20 µM (≈ 6.7 µg/mL)
CC(=O)c1c(C)cc(O)c(=O)c(O)c1Br [Compound 320]	2	37	> 120	20.1		49 (≈ 13.4 µg/mL)	49.5	EC50 [4]: 90.3 µM; CC50 [6]: ≥ 120 µM
Cc1cc(O)c(=O)c(O)cc1C(=O)C1CCCCC1 [Compound 120]		81	> 250	15.6		12 (≈ 3.15 µg/mL)		
Cc1cc(O)c(=O)c(O)cc1C(=O)N1CCN(C(=O)C2COc3ccccc3O2)CC1 (stereo not shown) [Compound 876]					≥ 120			
Cc1cc(O)c(=O)c(O)cc1C(=O)NCc1ccc(-c2ccccc2)cc1 [Compound 539]	10	105	> 300	18.6	71	4.5 (≈ 1.63 µg/mL)	3.6	MIC80 [11]: 38 µM (≈ 13.7 µg/mL)
O=c1c(O)ccc(-c2ccco2)cc1O [Compound 265]		57	> 250	15.4		11 (≈ 2.25 µg/mL)		MIC80 [11]: 30 µM (≈ 6.13 µg/mL)
CCCCCCSc1cccc(O)c(=O)c1O [Compound 840]	14	73	> 120	31.6	≥ 120	1 (≈ 0.254 µg/mL)	21.5	EC50 [4]: 15.4 µM; CC50 [6]: ≥ 120 µM
CC(=O)c1c(C)cc(O)c(=O)c(O)c1Cl [Compound 368]		115	> 250	25.4		24 (≈ 5.49 µg/mL)	31	
C/C(=N\c1ccc(C(F)(F)F)cc1)c1c(C)cc(=O)n(O)c1O [Compound 517]	13	135	> 120	> 120	≥ 120	24 (≈ 7.83 µg/mL)	91	EC50 [4]: 95.8 µM; CC50 [6]: 71.8 µM
Cc1ccc(O)c(=O)c(O)c1 [Compound 210]	8	85	283	14.6	≥ 120	15 (≈ 2.28 µg/mL)		
CCCCNC(=O)c1cc(O)c(=O)c(O)cc1C [Compound 1039]	6		> 120	8.9	≥ 120	12 (≈ 3.02 µg/mL)		EC50 [4]: 15.5 µM; CC50 [6]: ≥ 120 µM
Cc1cc(O)c(=O)c(O)cc1C(=O)c1ccc(-c2ccccc2)cc1 [Compound 118]		> 500	248	11		15 (≈ 4.99 µg/mL)		
COc1ccc(Cl)cc1C(=O)Sc1cccccc1=O [Compound 681]	≥ 120				2			
COc1ccc(CO/N=C(\C)c2c[nH]c(=O)[nH]c2=O)cc1 [Compound 522]	≥ 120				1			
Cc1cc(O)c(=O)c(O)cc1C(=O)N1CCN(c2ccc([N+](=O)[O-])c3nonc23)CC1 [Compound 920]	19				≥ 120			

Structure (SMILES)	EC50 [1] [µM]	IC50 [2] [µM]	CC50 at 1 day [3] [µM]	EC50 [7, 13] [µM]	CC50 [8] [µM]	MIC80 [5, 14] [µM]	CC50 at 3 days [9, 15] [µM]	further results
Cc1cc(O)c(=O)c(O)cc1-c1ccccc1 [Compound 113]		174	> 250	10.3		24 (≈ 5.48 µg/mL)		
CC(C)c1ccc(O)c(=O)cc1 [Compound 48, γ-thujaplicin, reference compound]	≥ 120							activity against RVFV in the primary screen, in words [1]: inactive
Cc1cc(O)c(=O)c(O)cc1C(=O)c1ccccc1 [Compound 111]		48	> 250	19		36 (≈ 9.23 µg/mL)		
CC1=CC(O)N(O)C(O)=C1/C(C)=N/c1ccccc1N (stereo not shown) [Compound 208]	14	194	> 250	> 120	≥ 120			MIC80 [5, 12]: 30 µM (≈ 8.26 µg/mL); CC50 at 3 days [9]: 14.4 µM
Cc1cc(O)c(=O)c(O)cc1C(=O)Nc1cccc(OCc2ccccc2)c1 [Compound 836]	13				≥ 120			
Cc1cc(O)c(=O)c(O)cc1S(=O)(=O)c1ccccc1 [Compound 336]	3		65.8	9		50 (≈ 14.6 µg/mL)		IC50 ([2]; read-out: Human RNaseH1 (IC50)): 85 µM
O=C1C=CC(=O)c2ccccc21 [Compound 327]	2	47	42.9	39.7		9.1 (≈ 1.44 µg/mL)	18.5	EC50 [4]: 19.6 µM; CC50 [6]: 27.5 µM
Cc1cc(O)c(=O)c(O)cc1C(=O)N1CCCCC1 [Compound 390]	0.1	106	> 250	11.9		11 (≈ 2.9 µg/mL)	29.8	activity against RVFV in the primary screen, in words [1]: active; EC50 [4]: 9.37 µM; CC50 [6]: ≥ 120 µM
CC(=O)c1c(C)cc(O)c(=O)c(O)c1-c1ccccc1 [Compound 330]	2	476	> 300	9.5		4 (≈ 1.08 µg/mL)	56.2	MIC80 [11]: 44 µM (≈ 11.9 µg/mL); EC50 [4]: 42.6 µM; CC50 [6]: ≥ 120 µM
O=C1c2ccccc2C(=O)N1O [Compound 138, reference compound]	≥ 120							
CSc1cccc(O)c(=O)c1O [Compound 385]		176	> 250	25.2		24 (≈ 4.42 µg/mL)	> 100	
C/C(=N\c1ccccc1Cl)c1c(C)cc(O)n(O)c1=O [Compound 668]	11	165	> 120	14 to 20	≥ 120		76.8	EC50 [4]: 35.7 µM; CC50 [6]: 82 µM; EC50 ([7]; read-out: RVFV (EC50)): 19.2 µM
COC(=O)c1c(C)cc(O)c(=O)c(O)c1O [Compound 196]		408	> 250	23.9			6	MIC80 [11]: 67 µM (≈ 15.2 µg/mL)
C/C(=N\c1ccccc1F)c1c(C)cc(=O)n(O)c1O [Compound 516]	19				≥ 120			
CC(=O)c1c(C)cc(O)c(=O)c(O)c1-c1cccc2ccccc12 [Compound 331]	2	448	80.4	15.8		11 (≈ 3.52 µg/mL)	36.6	MIC80 [11]: 67 µM (≈ 21.5 µg/mL); EC50 [4]: 17.7 µM; CC50 [6]: ≥ 120 µM
Cc1cc(O)c(=O)c(O)cc1-c1ccc(-c2cccc3ccccc23)cc1 [Compound 234]	19				≥ 120			
C/C(=N\c1cccc(Oc2ccccc2)c1)c1c(C)cc(=O)n(O)c1O [Compound 515]	14	622	> 120	24.3	≥ 120	11 (≈ 3.85 µg/mL)	71.3	EC50 [4]: ≥ 120 µM; CC50 [6]: 93.6 µM
CC(C)c1ccc(O)c(=O)c(O)c1 [Compound 46, β-thujaplicinol]			> 250	13.8		8 (≈ 1.44 µg/mL)		MIC80 [11]: 20 µM (≈ 3.6 µg/mL); MIC80 [10]: 44 µM (≈ 7.93 µg/mL)
O=C(O)CC(=O)CC(=O)c1cccs1 [Compound 129, reference compound]	≥ 120							
NC(=O)c1c(N)sc2c1CCCCC2 [Compound 22, reference compound]	≥ 120							
Cc1ccc(CNC(=O)c2cc(O)c(=O)c(O)cc2C)c(C)c1 [Compound 809]	17				64			
